From patent EP2604265A1, “P2x7 antagonists as frontline or adjunctive treatment against status epilepticus” (Royal College of Surgeons in Ireland (RCSI), priority 2011, dated 2013)

Biological target: T1, P2X7R (Mus musculus, UniProt Q9Z1M0)
T1 construct: endogenous in cells; host or cells: primary hippocampal neurons from E17 mouse embryos
T1 sequence (Q9Z1M0 1-595): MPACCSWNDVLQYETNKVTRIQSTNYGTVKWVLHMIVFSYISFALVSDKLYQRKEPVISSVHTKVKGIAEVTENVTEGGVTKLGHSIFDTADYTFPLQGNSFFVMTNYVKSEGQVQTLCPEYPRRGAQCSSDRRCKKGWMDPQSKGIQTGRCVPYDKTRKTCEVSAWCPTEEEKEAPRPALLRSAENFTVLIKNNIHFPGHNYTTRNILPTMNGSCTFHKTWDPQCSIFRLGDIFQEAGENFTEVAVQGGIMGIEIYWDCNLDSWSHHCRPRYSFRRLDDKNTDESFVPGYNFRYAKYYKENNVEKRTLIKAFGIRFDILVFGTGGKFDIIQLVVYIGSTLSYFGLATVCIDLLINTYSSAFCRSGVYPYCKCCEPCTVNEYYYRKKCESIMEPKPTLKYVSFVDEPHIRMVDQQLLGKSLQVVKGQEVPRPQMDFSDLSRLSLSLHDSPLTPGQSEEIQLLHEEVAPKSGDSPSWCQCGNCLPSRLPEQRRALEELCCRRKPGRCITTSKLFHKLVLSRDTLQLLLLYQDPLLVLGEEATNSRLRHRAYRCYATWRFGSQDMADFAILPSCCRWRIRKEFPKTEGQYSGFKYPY
Test: Fura-2 calcium microfluorimetry, BzATP-evoked calcium entry
Assay type: cell-based
Settings: cultured hippocampal neurons; BzATP 100 µM; BBG 1 µM
Method: Hippocampal neurons were prepared as described previously (Diaz-Hernandez et al., 2008). Briefly, hippocampi were obtained from E17 mouse embryos and, after dissection and washing three times in Ca^2+/Mg^2+-free HBSS, tissue was digested in the same solution with 0.25% trypsin for 15 min at 37°C. Hippocampi were then washed three times in Ca^2+/Mg^2+-free HBSS and dissociated with a firepolished Pasteur pipette. Cells were counted, resuspended in plating medium (MEM, 10% fetal bovine serum, 0.6% glucose) and plated at a density of 5,000 cells/cm^2 on poly-L-lysine coated coverslips (1 mg/ml). After plating, neurons were cultured for 24-72 h in neuronal culture medium (Neurobasal, B-27, glutamax-I). For biochemical experiments, hippocampal neurons were plated on polylysine-coated (1 mg/ml) 60-mm plates at a density of 200,000 cells/cm^2, and cultured for 72 h in neuronal culture medium. AraC was added at a final concentration of 5 µM after 2 days in culture.
Calcium microfluorimetric analysis in single neurons was carried out according to (Diaz-Hernandez et al., 2001). […]
Neurons were visualized using a Plan Fluor x40 S/0.5-1.3 oil lens. […] The background was subtracted at each wavelength and the 340 / 380 ratio was calculated. The data are represented as the normalized F340/F380 fluorescence ratio, which increases as [Ca^2+]i increases.

Compound: CCOc1ccc(Nc2ccc(C(=C3C=CC(=[N+](CC)Cc4cccc(S(=O)(=O)[O-])c4)C=C3C)c3ccc(N(CC)Cc4cccc(S(=O)(=O)O)c4)cc3C)cc2)cc1 [BBG, Brilliant Blue G]
- P2X7R-gated (BzATP-induced) calcium entry: effective to block
